# Results as given in patent US7202265B2, “Indolinone combinatorial libraries and related products and methods for the treatment of disease” (Sugen, Inc., priority 1997, dated 2007).
# Test system: human MET
# Test: MET biochemical kinase assay
# Parameters: concentration or dose not given beside the values
# Description: (d) MET Biochemical Kinase Assay
# A met biochemical kinase assay may be performed for met generally as described above for other kinases by substituting that or the other kinases. In particular, ELISA plates are coated with goat anti-rabbit Fc antibodies, which are used to capture commercially available (from Santa Cruz Biotechnology) rabbit polyclonal antibodies to the cytoplasmic domain of human MET. […] The chimeric receptors, or MET, from these lysates are captured on the antibody coated plates. After washing away extraneous proteins, test compounds are added and an in vitro kinase assay is performed by addition of an appropriate kinase buffer (containing ATP, divalent metal ions, etc.). Incorporation of phosphate into the captured receptors is detected with an anti-phosphotyrosine antibody conjugate with horse radish peroxidase using TMB as a substrate for calorimetric detection.
row,Met Kinase % Inhibition [%],SMILES
1,92.0,O=C1Nc2ccc(S(=O)(=O)N3CCOCC3)cc2C1=Cc1cc(Cl)cc(Br)c1O [10727/F04]
2,52.0,CCN(CC)c1ccc(C=C2C(=O)Nc3ccc(S(=O)(=O)N4CCOCC4)cc32)cc1 [10727/F02]
3,68.0,O=C1Nc2c(Br)cc(Br)cc2C1=Cc1cc(Cl)ccc1O [10734/A04]
4,53.0,Cc1ccc2occ(C=C3C(=O)Nc4c(Br)cc(Br)cc43)c(=O)c2c1 [10731/A06]
5,13.0,CNS(=O)(=O)c1ccc2c(c1)C(=Cc1ccc(F)cc1Cl)C(=O)N2 [10719/D09]
6,59.0,O=C1Nc2ccc(S(=O)(=O)Nc3ccc(C(F)(F)F)cc3)cc2C1=Cc1c[nH]c(=O)[nH]c1=O [10731/E08]
7,83.0,O=C1Nc2ccc(I)cc2C1=Cc1ccc(C(F)(F)F)cc1 [10722/B11]
8,8.7,O=C1Nc2ccc(S(=O)(=O)N3CCOCC3)cc2C1=Cc1ccc(F)cc1C(F)(F)F [10719/F11]
9,28.0,CCN(CC)c1ccc(C=C2C(=O)Nc3ccc(S(=O)(=O)Nc4ccc(C(F)(F)F)cc4)cc32)cc1 [10727/E02]
10,−4.7,O=C1Nc2ccc(S(=O)(=O)Nc3ccc(C(F)(F)F)cc3)cc2C1=Cc1c(Br)cnn1-c1ccc(Cl)cc1 [10725/E10]
11,61.0,O=C1Nc2c(Br)cc(Br)cc2C1=Cc1coc2ccc(Cl)cc2c1=O [10730/A06]
12,32.0,CCOC(=O)c1c(C)[nH]c(C=C2C(=O)Nc3ccc(S(=O)(=O)NC)cc32)c1C [10718/D02]
13,90.0,Cc1ccc(C=C2C(=O)Nc3ccc(I)cc32)s1 [10717/B07]
14,30.0,Cc1c(Br)ccc2c1C(=Cc1ncc[nH]1)C(=O)N2 [10720/C11]
15,7.9,Cc1c(Br)ccc2c1C(=Cc1cccc([N+](=O)[O-])c1)C(=O)N2 [10719/C10]
16,7.5,Cc1ccc(C=C2C(=O)Nc3ccc(CCCl)cc32)s1 [10717/G07]
17,79.0,CCCCN(CCCC)c1ccc(C=C2C(=O)Nc3c(Br)cc(Br)cc32)cc1 [10722/A10]
18,−0.7,O=C1Nc2ccc(S(=O)(=O)Nc3ccc(C(F)(F)F)cc3)cc2C1=Cc1cccc(Oc2ccccc2)c1 [10729/E06]
19,78.0,O=C1Nc2ccc(I)cc2C1=CC(c1cccs1)C(F)(F)F (stereo not shown) [10732/B02]
20,51.0,Cc1ccsc1C=C1C(=O)Nc2ccc(I)cc21 [10729/B05]
21,8.6,O=C1Nc2ccc(CCCl)cc2C1=Cc1cc2c([nH]1)CCCC2 [10721/G05]
22,76.0,CNS(=O)(=O)c1ccc2c(c1)C(=Cc1cc(Cl)cc(Br)c1O)C(=O)N2 [10727/D04]
23,91.0,Cc1cc(C=C2C(=O)Nc3c(Br)cc(Br)cc32)oc1C [10730/A11]
24,5.0,COc1ccc(C=C2C(=O)Nc3ccc(CCCl)cc32)cc1OC [10720/G04]
25,−2.4,Cc1cc(C)c(C=C2C(=O)Nc3ccc(CCCl)cc32)[nH]1 [10721/G08]
26,61.0,CCOC(=O)c1cc(C=C2C(=O)Nc3ccc(CCCl)cc32)oc1C [10718/G06]

row,Met Kinase % Inhibition [%],SMILES
1,77.0,O=C1Nc2ccc(I)cc2C1=Cc1cc(C(F)(F)F)ccc1F [10728/B08]
2,10.0,O=C1Nc2ccc(CCCl)cc2C1=Cc1ccc(Cl)s1 [10721/G07]
3,66.0,O=C1Nc2ccc(I)cc2C1=Cc1cccnc1 [10729/B08]
4,−2.4,CCOc1ccc(C=C2C(=O)Nc3ccc(CCCl)cc32)cc1OC [10719/G02]
5,−6.8,CNS(=O)(=O)c1ccc2c(c1)C(=Cc1cc(C)c(OCc3ccccc3)c(C)c1)C(=O)N2 [10733/D07]
6,80.0,CN(C)c1ccc(C=C2C(=O)Nc3ccc(S(=O)(=O)Nc4ccc(C(F)(F)F)cc4)cc32)cc1 [10719/E08]
7,99.0,O=C1Nc2ccc(S(=O)(=O)N3CCOCC3)cc2C1=Cc1ccc(O)c(O)c1O [10723/F02]
8,6.2,Cc1c(Br)ccc2c1C(=Cc1nn(C)cc1Cl)C(=O)N2 [10721/C03]
9,51.0,O=C1Nc2ccc(CCCl)cc2C1=Cc1csc([N+](=O)[O-])c1 [10722/G09]
10,84.0,O=C1Nc2ccc(S(=O)(=O)Nc3ccc(C(F)(F)F)cc3)cc2C1=Cc1ccc(C(F)(F)F)cc1 [10722/E11]
11,79.0,COc1cc(Br)cc(C=C2C(=O)Nc3ccc(CCCl)cc32)c1O [10733/G08]
12,39.0,CCc1c(C)[nH]c(C=C2C(=O)Nc3ccc(S(=O)(=O)Nc4ccc(C(F)(F)F)cc4)cc32)c1C [10719/E05]
13,28.0,Cc1c(Br)ccc2c1C(=Cc1ccc(N3CCOCC3)cc1)C(=O)N2 [10725/C08]
14,51.0,CNS(=O)(=O)c1ccc2c(c1)C(=Cc1cc(OC)ccc1O)C(=O)N2 [10720/D10]
15,1.6,CC(C)(C)c1cc(C=C2C(=O)Nc3ccc(S(=O)(=O)Nc4ccc(C(F)(F)F)cc4)cc32)cc(Cl)c1OCc1ccccc1 [10732/E10]
16,6.7,CC(C)(C)c1cc(C=C2C(=O)Nc3ccc(I)cc32)cc(C(C)(C)C)c1O [10721/B11]
17,85.0,O=C1Nc2ccc(S(=O)(=O)Nc3ccc(C(F)(F)F)cc3)cc2C1=Cc1ccncc1 [10729/E09]
18,36.0,COc1cc(C=C2C(=O)Nc3ccc(S(=O)(=O)N4CCOCC4)cc32)cc(OC)c1OC [10730/F04]
19,23.0,CNS(=O)(=O)c1ccc2c(c1)C(=Cc1cc(C(C)C)c(O)c(C(C)C)c1)C(=O)N2 [10724/D06]
20,26.0,Cc1cc(C=C2C(=O)Nc3ccc(S(=O)(=O)N4CCOCC4)cc32)sc1C [10721/F04]
21,9.7,N#Cc1cccc(C=C2C(=O)Nc3c(Br)cc(Br)cc32)c1 [10727/A08]
22,−13.6,CNS(=O)(=O)c1ccc2c(c1)C(=Cc1cc3ccccc3nc1Cl)C(=O)N2 [10730/D08]
23,59.0,Cc1ccc(C=C2C(=O)Nc3ccc(S(=O)(=O)Nc4ccc(C(F)(F)F)cc4)cc32)o1 [10725/E04]
24,8.9,Cc1c(Br)ccc2c1C(=Cc1ccccc1Sc1ccc(Cl)cc1)C(=O)N2 [10727/C05]
25,−16.4,Cc1cc(C=C2C(=O)Nc3ccc(S(=O)(=O)N4CCOCC4)cc32)cc(C)c1OCc1ccccc1 [10733/F07]
26,40.0,O=C1Nc2ccc(S(=O)(=O)Nc3ccc(C(F)(F)F)cc3)cc2C1=Cc1c(F)cccc1C(F)(F)F [10728/E09]

row,Met Kinase % Inhibition [%],SMILES
1,9.7,CNS(=O)(=O)c1ccc2c(c1)C(=Cc1cc(C)c(C)o1)C(=O)N2 [10730/D11]
2,24.0,O=C1Nc2ccc(CCCl)cc2C1=Cc1ccc(F)cc1C(F)(F)F [10719/G11]
3,47.0,Cc1c(Br)ccc2c1C(=Cc1cc(C(C)(C)C)cc(C(C)(C)C)c1O)C(=O)N2 [10723/C11]
4,−2.2,O=C1Nc2ccc(S(=O)(=O)Nc3ccc(C(F)(F)F)cc3)cc2C1=Cc1cc2c(cc1Cl)OCO2 [10727/E06]
5,34.0,O=C1Nc2ccc(CCCl)cc2C1=Cc1c[nH]c2ccccc12 [10717/G06]
6,9.4,O=C1Nc2c(Br)cc(Br)cc2C1=Cc1ccc[nH]1 [10717/A09]
7,72.0,CC(C)(C)c1cc(C=C2C(=O)Nc3ccc(I)cc32)cc(Cl)c1O [10722/B08]
8,2.9,CC(C)(C)c1cc(C=C2C(=O)Nc3ccc(S(=O)(=O)Nc4ccc(C(F)(F)F)cc4)cc32)cc(C(C)(C)C)c1OCc1ccccc1 [10733/E05]
9,5.1,CC(C)(C)c1cc(C=C2C(=O)Nc3ccc(CCCl)cc32)ccc1O [10721/G09]
10,24.0,CCOc1ccccc1C=C1C(=O)Nc2ccc(S(=O)(=O)Nc3ccc(C(F)(F)F)cc3)cc21 [10717/E02]
11,1.8,CC(C)(C)c1cc(C=C2C(=O)Nc3ccc(CCCl)cc32)cc(C(C)(C)C)c1OCc1ccccc1 [10733/G05]
12,47.0,O=C1Nc2c(Br)cc(Br)cc2C1=Cc1ccc(F)cc1Cl [10719/A09]
13,24.0,O=C1Nc2ccc(CCCl)cc2C1=Cc1ccc(O)cc1 [10719/G07]
14,9.6,CNS(=O)(=O)c1ccc2c(c1)C(=Cc1ccc(OC)cc1)C(=O)N2 [10726/D11]
15,85.0,Cc1cc(C=C2C(=O)Nc3c(Br)cc(Br)cc32)sc1C [10721/A04]
16,27.0,O=C1Nc2ccc(S(=O)(=O)Nc3ccc(C(F)(F)F)cc3)cc2C1=Cc1cccn1-c1ccc(Cl)cc1 [10724/E09]
17,24.0,CCc1cc(CC)c(C=C2C(=O)Nc3ccc(S(=O)(=O)NC)cc32)[nH]1 [10727/D03]
18,27.0,N#Cc1cccc(C=C2C(=O)Nc3ccc(S(=O)(=O)Nc4ccc(C(F)(F)F)cc4)cc32)c1 [10727/E08]
19,−11.6,Cc1c(Br)ccc2c1C(=Cc1coc3ccc([N+](=O)[O-])cc3c1=O)C(=O)N2 [10731/C07]
20,−5.1,Cc1c(Br)ccc2c1C(=Cc1ccc(F)cc1C(F)(F)F)C(=O)N2 [10719/C11]
21,8.7,CCOC(=O)CCc1c(C(=O)OCC)[nH]c(C=C2C(=O)Nc3ccc(Br)c(C)c32)c1CC(=O)OCC [10718/C05]
22,83.0,Cc1c(Br)ccc2c1C(=Cc1ccc(O)cc1O)C(=O)N2 [10723/C08]
23,55.0,CCN(CC)c1ccc(C=C2C(=O)Nc3ccc(S(=O)(=O)NC)cc32)c(O)c1 [10734/D05]
24,21.0,CNS(=O)(=O)c1ccc2c(c1)C(=Cc1cccn1C)C(=O)N2 [10717/D04]
